According to paper PMC4860888 (Theranostics, 2016):

Experiments:
[1] = system: AK7 murine mesothelioma cells; type: in vivo, C57Bl/6 mice; conditions: decitabine 4 µg/g i.p. days 7 and 9
[2] = system: HDAC; conditions: cited from earlier work

Nc1ncn([C@H]2C[C@H](O)[C@@H](CO)O2)c(=O)n1 [decitabine]
Anti-tumor effect by itself [1]: no anti-tumor effect

CC(C=CC(=O)NO)=C[C@H](C)C(=O)c1ccc(N(C)C)cc1 [(S)-isomer]
Fold less potent than (R)-trichostatin A [2]: 70 fold
